The record followed here is patent publication US20260209247A1, “Substituted Tricyclic Compounds” (Lupin Limited, priority 2019, published 2026).

Test [1] has as its system MIA PaCa-2 human pancreatic cancer xenograft. Kind of test: MIA PaCa-2 xenograft efficacy study. It is filed as in vivo. As to conditions: b.i.d., p.o., nude mice. As to the method:
In vivo efficacy of compounds 68, 101b at a dose of 30 mg/kg, b.i.d., p.o. and compound 81 at a dose of 50 mg/kg, b.i.d., p.o., was evaluated in MIA PaCa-2 human pancreatic cancer xenograft model in nude mice.
MIA PaCa-2 tumor fragments were implanted subcutaneously in the right flank region of nude mice. Tumor-bearing mice were randomized once the tumors reached an average volume of ~141-142 mm^3 (tumor volume range 72-242 mm^3).
To assess the efficacy of compound 81, the tumor-bearing mice were randomized once the tumors reached an average volume of ~181-183 mm^3 (tumor volume range 73-251 mm^3). The mice were divided into the following groups (n=8/group): Vehicle control and compound 81 (50 mg/kg, b.i d., p.o.).

For test [2], the system named is pERK after EGF stimulation in DLD1 cells. Kind of test: ERK phosphorylation assay (alphascreen pERK). In kind it is cell-based. The following applies: Homo sapiens, DLD-1, 2 h compound, 200 ng/ml hEGF for 5 minutes, read-out: ERK phosphorylation inhibition IC50. In short, it runs like this:
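DLD1 cells pretreated with test compounds for 2 h, then stimulated with 200 ng/ml hEGF for 5 min. Lysates assayed by AlphaScreen SureFire for ERK1/2 p-T202/Y204, read after 2 h at 25–28 °C. % inhibition relative to the stimulated-minus-unstimulated vehicle window.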
Background: In Alpha technology, singlet oxygen from a donor bead excites a nearby acceptor bead.

Test [3] has as its target T1, nucleotide exchange on hKRASG12C mediated by hSOS1 (Homo sapiens, UniProt Q07889).
T1 construct: HIS-hSOS1, 564-1049aa mediated GTP loading onto GST-hKRASG12C; His (N); made in house
T1 sequence (Q07889 564-1049): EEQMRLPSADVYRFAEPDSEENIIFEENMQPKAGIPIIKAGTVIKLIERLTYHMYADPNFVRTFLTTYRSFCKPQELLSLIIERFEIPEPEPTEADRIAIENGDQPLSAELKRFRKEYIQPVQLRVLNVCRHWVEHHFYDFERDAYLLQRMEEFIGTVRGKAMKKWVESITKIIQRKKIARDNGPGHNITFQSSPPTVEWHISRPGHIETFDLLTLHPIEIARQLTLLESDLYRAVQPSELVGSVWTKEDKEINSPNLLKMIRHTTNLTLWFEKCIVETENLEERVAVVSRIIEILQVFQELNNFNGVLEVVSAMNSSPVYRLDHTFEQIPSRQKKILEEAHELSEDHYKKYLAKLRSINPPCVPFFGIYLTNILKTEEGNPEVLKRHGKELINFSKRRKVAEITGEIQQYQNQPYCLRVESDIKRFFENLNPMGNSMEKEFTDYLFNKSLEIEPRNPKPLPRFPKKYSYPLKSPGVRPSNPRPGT
Kind of test: Guanine nucleotide exchange assay (GNEA, HTRF). It is filed as biochemical. As to conditions: HIS-hSOS1 564-1049aa mediated GTP loading onto GST-hKRASG12C 1-169aa, read-out: Guanine nucleotide exchange inhibition IC50. The method in brief:
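Compounds were pre-incubated 10 min at 20 °C with HIS-hSOS1 (564-1049aa) and EDA-GTP-DY-647P1 (working solution 10-50 nM and 200 nM) in pH 7.4 HEPES with NaCl, MgCl2, DTT, BSA and Igepal. GST-hKRASG12C (1-169aa, 25-125 nM working solution) plus anti-GST-Tb was added for 30-60 min at 20 °C. Percent inhibition came from the HTRF 665/620 nm ratio.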
Background: In TR-FRET formats the signal depends on donor and acceptor labels being close together.

Test [4] addresses T2, protein-protein interaction between hSOS1 and hKRASG12C (Homo sapiens, UniProt Q07889).
T2 construct: GST-hSOS1, 564-1049aa expressed and purified in-house
T2 sequence (Q07889 564-1049): T1 sequence (Q07889 564-1049)
Kind of test: KRAS-SOS1 interaction assay (HTRF). The following applies: GST-hSOS1 564-1049aa, HIS-hKRASG12C, read-out: KRAS-SOS1 Interaction inhibition IC50. It is filed as binding. The method in brief: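 GST-hSOS1 (564-1049aa) at 10-50 nM working solution pre-incubated with compounds 10 min at 20° C in HEPES pH 7.4 buffer with EDTA, DTT, BSA and Igepal. HIS-hKRASG12C (100-300 nM working solution) added for 30-60 min, then anti-GST-d2/anti-HIS-Tb detection; percent inhibition from the 665/620 nm ratio.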

As a reminder, the IC50 is the concentration that inhibits the measured activity by half. In test [1] (30 mg/kg), `COC1(C)C(=O)N(C)c2cc3c(N[C@H](C)c4cccc(C(F)(F)C(C)(C)O)c4F)nc(C)nc3cc21` (single isomer, unassigned) [Compound 101b] yielded a tumor growth inhibition of 65.71%. Besides, the values for the IC50 in test [2], in test [3] and in test [4] were 0.001 to 0.2 µM, 0.001 to 0.03 µM and 0.001 to 0.01 µM, respectively.
As for `Cc1nc(N[C@H](C)c2cccc(C(F)(F)C(C)(C)O)c2F)c2cc3c(cc2n1)C(C)(C)C(=O)N3C` [Compound 68, (R)-4-((1-(3-(1,1-Difluoro-2-hydroxy-2-methylpropyl)-2-fluorophenyl)ethyl)amino)-2,6,8,8-tetramethyl-6,8-dihydro-7H-pyrrolo[2,3-g]quinazolin-7-one], the tumor growth inhibition in test [1] (30 mg/kg) stood at 63.82%. The figures for the IC50 in test [2], in test [3] and in test [4] were 0.001 to 0.2 µM, 0.001 to 0.03 µM and 0.001 to 0.01 µM, respectively.
For `Cc1nc(N[C@H](C)c2cccc(C(F)(F)C(C)(C)O)c2F)c2cc3c(cc2n1)N(C)C(=O)C3(C)C` [Compound 81, (R)-4-((1-(3-(1,1-difluoro-2-hydroxy-2-methylpropyl)-2-fluorophenyl)ethyl)amino)-2,6,6,8-tetramethyl-6,8-dihydro-7H-pyrrolo[3,2-g]quinazolin-7-one], the tumor growth inhibition in test [1] (50 mg/kg) is 67.68%. The IC50 in test [2] lay in the range of 0.001 to 0.2 µM; in test [3] it was 0.001 to 0.03 µM; in test [4], 0.001 to 0.01 µM.
As for `Cc1nc(N[C@H](C)c2cccc(C(F)(F)C(C)(C)O)c2F)c2cc3c(cc2n1)C1(CCOCC1)C(=O)N3C` [Compound 122, (R)-4′-((1-(3-(1,1-difluoro-2-hydroxy-2-methylpropyl)-2-fluorophenyl)ethyl)amino)-2′,6′-dimethyl-2,3,5,6-tetrahydrospiro[pyran-4,8′-pyrrolo[2,3-g]quinazolin]-7′(6′H)-one], the IC50 fell in the range of 0.001 to 0.2 µM in test [2], 0.001 to 0.03 µM in test [3] and 0.001 to 0.01 µM in test [4].
For `CO[C@]1(C)C(=O)N(C)c2cc3c(N[C@H](C)c4cc(N)cc(C(F)(F)F)c4)nc(C)nc3cc21` [Compound 131, (S)-4-(((R)-1-(3-amino-5-(trifluoromethyl)phenyl)ethyl)amino)-8-methoxy-2,6,8-trimethyl-6,8-dihydro-7H-pyrrolo[2,3-g]quinazolin-7-one] the same measures were 0.001 to 0.2 µM, 0.031 to 0.13 µM and 0.011 to 0.025 µM.
For the compound `Cc1nc(N[C@H](C)c2cc(N)cc(C(F)(F)F)c2)c2cc3c(cc2n1)C1(CCOCC1)C(=O)N3C` [Compound 138, (R)-4′-((1-(3-amino-5-(trifluoromethyl)phenyl)ethyl)amino)-2′,6′-dimethyl-2,3,5,6-tetrahydrospiro[pyran-4,8′-pyrrolo[2,3-g]quinazolin]-7′(6′H)-one], the figures for the IC50 in test [2], in test [3] and in test [4] were 0.001 to 0.2 µM, 0.031 to 0.13 µM and 0.011 to 0.025 µM, respectively.
In the case of `CCC1(OC)C(=O)N(C)c2cc3c(N[C@H](C)c4cc(N)cc(C(F)(F)F)c4)nc(C)nc3cc21` (stereo partly drawn) [Compound 139, (R & S)-4-(((R)-1-(3-amino-5-(trifluoromethyl)phenyl)ethyl)amino)-8-ethyl-8-methoxy-2,6-dimethyl-6,8-dihydro-7H-pyrrolo[2,3-g]quinazolin-7-one], the IC50 in test [2] is 0.201 to 0.5 µM; in test [3], 0.031 to 0.13 µM; in test [4] it was 0.011 to 0.025 µM.
